In data set [1] the target is T1, Adenosine receptor A1 (Homo sapiens) (UniProt P30542).
T1 sequence (whole entry): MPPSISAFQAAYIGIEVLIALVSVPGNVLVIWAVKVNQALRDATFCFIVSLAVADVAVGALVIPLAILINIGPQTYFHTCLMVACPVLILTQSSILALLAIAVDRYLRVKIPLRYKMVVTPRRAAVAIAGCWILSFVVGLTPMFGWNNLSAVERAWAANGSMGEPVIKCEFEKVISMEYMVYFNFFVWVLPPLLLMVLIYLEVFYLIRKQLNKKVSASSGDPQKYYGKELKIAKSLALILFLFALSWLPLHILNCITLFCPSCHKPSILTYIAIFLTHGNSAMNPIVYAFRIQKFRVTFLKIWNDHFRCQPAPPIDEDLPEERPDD
Put plainly: Inhibition of human recombinant A1 receptor at 10 uM by radioligand binding assay.

Data set [2] deals with Adenosine receptor A2a (Homo sapiens) (UniProt P29274). Put plainly: Inhibition of human recombinant A2a receptor at 10 uM by radioligand binding assay.
The target in data set [3] is T2, Adenosine receptor A3 (Homo sapiens) (UniProt P0DMS8).
T2 sequence (whole entry): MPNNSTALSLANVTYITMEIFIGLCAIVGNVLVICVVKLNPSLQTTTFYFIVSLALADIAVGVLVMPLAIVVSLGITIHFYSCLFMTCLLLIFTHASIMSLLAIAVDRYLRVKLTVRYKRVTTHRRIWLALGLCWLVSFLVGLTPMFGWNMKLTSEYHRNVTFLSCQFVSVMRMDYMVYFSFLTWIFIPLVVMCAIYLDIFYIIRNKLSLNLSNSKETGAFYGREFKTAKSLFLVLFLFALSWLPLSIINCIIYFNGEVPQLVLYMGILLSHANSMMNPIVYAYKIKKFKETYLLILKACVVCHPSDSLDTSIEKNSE
Put plainly: Inhibition of human recombinant A3 receptor at 10 uM by radioligand binding assay.

Data set [4] has as its target Adrenergic receptor alpha-1 (Homo sapiens) (UniProt P35348+P25100+P35368). Put plainly: Inhibition of human recombinant alpha1 receptor at 10 uM by radioligand binding assay.
Data set [5] has as its target Adrenergic receptor alpha-2 (Homo sapiens) (UniProt P08913+P18825+P18089). Nature of the data set: Inhibition of human recombinant alpha2 receptor at 10 uM by radioligand binding assay.
In data set [6] the target is Beta-2 adrenergic receptor (Homo sapiens) (UniProt P07550). Put plainly: Inhibition of human recombinant beta2 receptor at 10 uM by radioligand binding assay.
The species named for data set [7] is Homo sapiens. Put plainly: Inhibition of human recombinant BZD receptor at 10 uM by radioligand binding assay.
Data set [8] has as its target D(1A) dopamine receptor (Homo sapiens) (UniProt P21728). Nature of the data set: Inhibition of human recombinant D1 receptor at 10 uM by radioligand binding assay.
Data set [9] addresses D(2) dopamine receptor (Homo sapiens) (UniProt P14416). Nature of the data set: Inhibition of human recombinant D2S receptor at 10 uM by radioligand binding assay.
The species named for data set [10] is Homo sapiens. Nature of the data set: Inhibition of human recombinant GABA receptor at 10 uM by radioligand binding assay.
Data set [11] deals with Histamine H2 receptor (Homo sapiens) (UniProt P25021). Put plainly: Inhibition of human recombinant H2 receptor at 10 uM by radioligand binding assay.
In data set [12] the target is Melanocortin receptor 4 (Homo sapiens) (UniProt P32245). Put plainly: Inhibition of human recombinant MC4 receptor at 10 uM by radioligand binding assay.
Data set [13] concerns the target Melatonin receptor type 1A (Homo sapiens) (UniProt P48039). Put plainly: Inhibition of human recombinant MT1 receptor at 10 uM by radioligand binding assay.
The target of data set [14] is T3, Muscarinic acetylcholine receptor M1 (Homo sapiens) (UniProt P11229).
T3 sequence (whole entry): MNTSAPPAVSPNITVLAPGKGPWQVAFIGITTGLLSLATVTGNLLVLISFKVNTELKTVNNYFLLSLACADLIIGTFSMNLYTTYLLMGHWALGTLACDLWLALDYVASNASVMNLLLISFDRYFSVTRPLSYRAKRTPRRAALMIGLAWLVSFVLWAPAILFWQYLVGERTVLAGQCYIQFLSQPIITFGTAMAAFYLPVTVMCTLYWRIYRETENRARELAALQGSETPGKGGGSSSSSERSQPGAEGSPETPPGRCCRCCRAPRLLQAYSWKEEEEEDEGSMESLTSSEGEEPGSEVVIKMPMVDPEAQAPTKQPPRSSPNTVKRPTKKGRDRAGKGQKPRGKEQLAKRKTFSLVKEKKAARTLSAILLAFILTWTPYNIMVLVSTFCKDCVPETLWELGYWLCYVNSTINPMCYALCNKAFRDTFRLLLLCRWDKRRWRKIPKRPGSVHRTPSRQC
Nature of the data set: Inhibition of human recombinant M1 receptor at 10 uM by radioligand binding assay.

In data set [15] the target is Mu-type opioid receptor (Homo sapiens) (UniProt P35372). Nature of the data set: Inhibition of human recombinant MOP receptor at 10 uM by radioligand binding assay.
In data set [16] the target is Nociceptin receptor (Homo sapiens) (UniProt P41146). Put plainly: Inhibition of human recombinant NOP receptor at 10 uM by radioligand binding assay.
The target in data set [17] is T4, Thromboxane A2 receptor (Homo sapiens) (UniProt P21731).
T4 sequence (whole entry): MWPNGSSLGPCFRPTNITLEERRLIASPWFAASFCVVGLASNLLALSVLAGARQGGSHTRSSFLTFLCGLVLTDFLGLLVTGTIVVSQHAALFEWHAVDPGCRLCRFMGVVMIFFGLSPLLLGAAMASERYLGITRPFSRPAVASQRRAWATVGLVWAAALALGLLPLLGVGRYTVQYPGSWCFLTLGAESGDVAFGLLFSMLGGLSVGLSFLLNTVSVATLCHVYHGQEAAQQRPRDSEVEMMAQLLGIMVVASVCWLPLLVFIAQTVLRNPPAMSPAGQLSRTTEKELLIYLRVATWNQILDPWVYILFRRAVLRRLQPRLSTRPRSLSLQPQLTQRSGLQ
Put plainly: Inhibition of human recombinant TP receptor at 10 uM by radioligand binding assay.

Data set [18] has as its target 5-hydroxytryptamine receptor 1B (Homo sapiens) (UniProt P28222). Put plainly: Inhibition of human recombinant 5HT1B receptor at 10 uM by radioligand binding assay.
In data set [19] the target is Voltage-gated L-type calcium channel (Homo sapiens, UniProt Q13936+Q13698+Q01668+O60840). Nature of the data set: Inhibition of human recombinant L-type Ca2+ channel at 10 uM by radioligand binding assay.
Data set [20] is described as follows: Inhibition of GSNOR expressed in Escherichia coli using GSNO by cuvette method.

Activity calls are given as the source filed them. The rule behind the calls is not given here.

Sequence of Histamine H2 receptor (Homo sapiens) (P25021 whole entry): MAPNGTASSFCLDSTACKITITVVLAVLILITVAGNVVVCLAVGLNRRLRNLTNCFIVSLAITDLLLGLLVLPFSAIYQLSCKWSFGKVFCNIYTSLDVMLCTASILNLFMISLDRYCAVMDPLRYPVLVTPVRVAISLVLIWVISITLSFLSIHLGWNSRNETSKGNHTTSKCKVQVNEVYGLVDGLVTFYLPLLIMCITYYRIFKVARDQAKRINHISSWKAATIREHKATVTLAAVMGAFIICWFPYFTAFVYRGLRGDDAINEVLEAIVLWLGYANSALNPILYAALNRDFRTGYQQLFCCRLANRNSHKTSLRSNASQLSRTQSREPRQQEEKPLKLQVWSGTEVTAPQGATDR
Sequence of 5-hydroxytryptamine receptor 1B (Homo sapiens) (P28222 whole entry): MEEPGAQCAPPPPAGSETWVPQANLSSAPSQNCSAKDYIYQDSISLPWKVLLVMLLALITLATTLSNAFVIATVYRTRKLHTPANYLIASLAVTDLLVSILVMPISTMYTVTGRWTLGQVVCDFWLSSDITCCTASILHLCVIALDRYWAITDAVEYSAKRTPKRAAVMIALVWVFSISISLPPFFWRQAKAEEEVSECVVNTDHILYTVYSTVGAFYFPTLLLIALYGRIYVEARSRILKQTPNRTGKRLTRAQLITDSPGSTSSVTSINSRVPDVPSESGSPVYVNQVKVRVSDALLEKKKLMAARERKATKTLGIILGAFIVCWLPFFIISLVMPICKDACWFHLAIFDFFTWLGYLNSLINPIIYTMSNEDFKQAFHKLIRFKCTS
Sequence of Mu-type opioid receptor (Homo sapiens) (P35372 whole entry): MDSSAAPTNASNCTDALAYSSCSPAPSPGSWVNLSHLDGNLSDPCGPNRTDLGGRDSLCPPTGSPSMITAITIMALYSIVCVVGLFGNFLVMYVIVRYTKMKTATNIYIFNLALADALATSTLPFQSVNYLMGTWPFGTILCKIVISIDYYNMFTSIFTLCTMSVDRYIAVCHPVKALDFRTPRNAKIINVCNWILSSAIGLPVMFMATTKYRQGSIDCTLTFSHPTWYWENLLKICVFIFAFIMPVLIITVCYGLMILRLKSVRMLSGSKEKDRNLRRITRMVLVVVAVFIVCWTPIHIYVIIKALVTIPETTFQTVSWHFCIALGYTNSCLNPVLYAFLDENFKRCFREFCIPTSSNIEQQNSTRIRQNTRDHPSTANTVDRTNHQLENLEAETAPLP
Sequence of Nociceptin receptor (Homo sapiens) (P41146 whole entry): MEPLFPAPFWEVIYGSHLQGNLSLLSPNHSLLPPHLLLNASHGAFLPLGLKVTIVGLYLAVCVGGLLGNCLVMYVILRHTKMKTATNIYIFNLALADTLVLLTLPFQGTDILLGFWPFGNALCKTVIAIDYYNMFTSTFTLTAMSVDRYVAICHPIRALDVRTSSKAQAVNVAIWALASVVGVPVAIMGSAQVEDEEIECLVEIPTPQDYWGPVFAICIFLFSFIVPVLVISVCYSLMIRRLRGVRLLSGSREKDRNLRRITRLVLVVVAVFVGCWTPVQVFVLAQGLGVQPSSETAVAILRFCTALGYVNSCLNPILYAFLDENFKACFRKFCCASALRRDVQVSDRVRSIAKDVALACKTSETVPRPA
Sequence of Melatonin receptor type 1A (Homo sapiens) (P48039 whole entry): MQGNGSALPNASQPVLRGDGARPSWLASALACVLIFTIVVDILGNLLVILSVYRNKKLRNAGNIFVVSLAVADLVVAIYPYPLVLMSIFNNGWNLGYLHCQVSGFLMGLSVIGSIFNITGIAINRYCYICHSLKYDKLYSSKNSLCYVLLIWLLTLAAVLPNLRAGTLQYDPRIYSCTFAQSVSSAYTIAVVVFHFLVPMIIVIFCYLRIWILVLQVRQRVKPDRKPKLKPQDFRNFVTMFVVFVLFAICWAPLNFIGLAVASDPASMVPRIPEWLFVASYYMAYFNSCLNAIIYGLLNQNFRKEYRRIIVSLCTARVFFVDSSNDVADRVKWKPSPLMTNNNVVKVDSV
Sequence of Adenosine receptor A2a (Homo sapiens) (P29274 whole entry): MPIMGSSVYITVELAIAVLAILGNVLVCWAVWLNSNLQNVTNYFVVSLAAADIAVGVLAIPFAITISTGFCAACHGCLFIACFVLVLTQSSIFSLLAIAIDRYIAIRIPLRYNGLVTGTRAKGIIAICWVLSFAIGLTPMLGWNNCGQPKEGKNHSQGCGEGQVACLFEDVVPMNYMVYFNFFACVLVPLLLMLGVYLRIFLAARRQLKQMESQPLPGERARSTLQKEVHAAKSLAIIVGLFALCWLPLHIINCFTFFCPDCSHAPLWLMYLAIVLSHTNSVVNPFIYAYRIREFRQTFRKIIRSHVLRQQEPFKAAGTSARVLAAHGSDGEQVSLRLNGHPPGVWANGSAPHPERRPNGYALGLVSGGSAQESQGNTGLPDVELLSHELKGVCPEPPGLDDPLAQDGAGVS
Sequence of Melanocortin receptor 4 (Homo sapiens) (P32245 whole entry): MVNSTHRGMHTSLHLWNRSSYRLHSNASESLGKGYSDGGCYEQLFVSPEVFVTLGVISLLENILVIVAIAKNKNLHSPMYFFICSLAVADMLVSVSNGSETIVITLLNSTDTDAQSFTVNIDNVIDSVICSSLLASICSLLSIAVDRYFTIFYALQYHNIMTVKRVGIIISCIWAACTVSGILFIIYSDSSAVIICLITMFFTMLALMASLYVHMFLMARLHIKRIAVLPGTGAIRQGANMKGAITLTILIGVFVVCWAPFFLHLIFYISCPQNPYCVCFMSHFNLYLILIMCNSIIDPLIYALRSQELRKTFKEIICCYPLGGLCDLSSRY
Sequence of D(1A) dopamine receptor (Homo sapiens) (P21728 whole entry): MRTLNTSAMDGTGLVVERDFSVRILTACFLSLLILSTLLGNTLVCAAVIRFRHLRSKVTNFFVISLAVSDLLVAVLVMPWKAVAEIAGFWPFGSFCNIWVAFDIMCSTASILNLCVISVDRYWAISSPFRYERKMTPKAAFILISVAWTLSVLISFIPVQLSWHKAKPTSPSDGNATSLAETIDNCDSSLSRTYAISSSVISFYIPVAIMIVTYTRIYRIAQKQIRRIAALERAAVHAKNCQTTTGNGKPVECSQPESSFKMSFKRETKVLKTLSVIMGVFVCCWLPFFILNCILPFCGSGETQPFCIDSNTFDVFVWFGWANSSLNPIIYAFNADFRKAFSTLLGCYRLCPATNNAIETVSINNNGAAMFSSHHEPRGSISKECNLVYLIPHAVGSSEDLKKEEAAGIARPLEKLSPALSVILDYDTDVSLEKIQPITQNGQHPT
Sequence of D(2) dopamine receptor (Homo sapiens) (P14416 whole entry): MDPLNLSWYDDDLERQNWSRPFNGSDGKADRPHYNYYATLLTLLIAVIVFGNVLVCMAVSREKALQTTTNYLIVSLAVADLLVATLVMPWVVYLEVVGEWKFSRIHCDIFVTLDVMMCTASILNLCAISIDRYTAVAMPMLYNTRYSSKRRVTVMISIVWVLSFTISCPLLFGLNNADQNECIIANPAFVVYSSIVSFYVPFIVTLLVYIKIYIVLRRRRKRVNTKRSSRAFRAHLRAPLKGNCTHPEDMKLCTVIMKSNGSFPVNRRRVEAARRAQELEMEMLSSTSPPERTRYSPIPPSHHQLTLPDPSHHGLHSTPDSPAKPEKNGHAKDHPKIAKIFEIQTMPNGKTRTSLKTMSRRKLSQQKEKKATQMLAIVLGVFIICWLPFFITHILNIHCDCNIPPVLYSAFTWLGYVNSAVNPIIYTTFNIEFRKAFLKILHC
Sequence of Beta-2 adrenergic receptor (Homo sapiens) (P07550 whole entry, looked up): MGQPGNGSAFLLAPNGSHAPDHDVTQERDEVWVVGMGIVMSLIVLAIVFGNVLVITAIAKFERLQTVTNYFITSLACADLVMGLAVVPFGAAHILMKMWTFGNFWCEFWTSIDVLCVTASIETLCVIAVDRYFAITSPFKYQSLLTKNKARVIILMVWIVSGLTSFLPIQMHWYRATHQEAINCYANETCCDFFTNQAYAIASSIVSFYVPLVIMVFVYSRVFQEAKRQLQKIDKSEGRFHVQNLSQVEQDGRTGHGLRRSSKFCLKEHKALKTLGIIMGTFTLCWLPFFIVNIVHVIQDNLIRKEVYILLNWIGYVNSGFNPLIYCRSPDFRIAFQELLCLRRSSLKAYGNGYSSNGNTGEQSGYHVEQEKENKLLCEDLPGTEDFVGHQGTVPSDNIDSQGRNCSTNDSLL

Turning to `COc1ccc(-c2ccn(-c3ccc(O)c([N+](=O)[O-])c3)c2-c2ccc(C(N)=O)cc2C)cc1`, the inhibition result in data set [1], in [2], in data set [3], in data set [4], in data set [5] and in [6] was “Active” throughout. Further, the inhibition entry in [7], in data set [8], in data set [9], in data set [10], in data set [11] and in [12] was “Active” each time. For the same compound, the inhibition result in data set [13], in [14], in data set [15], in data set [16], in data set [17] and in data set [18] was “Active” each time. For the same compound, the “inhibition (INH)” value in [19] was “Active”. In addition, the midpoint of inhibition in data set [20], the IC50, lay at 190 nM.

As to `Cc1cc(C(N)=O)ccc1-c1c(CCC(=O)O)ccn1-c1ccc(-n2ccnc2)cc1`, the inhibition result in data set [1], in data set [2], in data set [3], in [4], in [5] and in data set [6] was “inactive” in each case. Besides, the inhibition entry in [7], in [8], in data set [9], in data set [10], in [11] and in data set [12] was “inactive” throughout. In addition, the inhibition result in data set [13], in data set [14], in data set [15], in data set [16], in data set [17] and in data set [18] was “inactive” throughout. In [19], the “inhibition (INH)” value is “Not Active”.

Turning to `Cc1cc(C(N)=O)ccc1-c1c(-c2ccc(-n3ccnc3)cc2)ccn1CCC(=O)O`, the inhibition result in [1], in [2], in data set [3], in [4], in data set [5] and in [6] was “inactive” each time. The inhibition result in [7], in data set [8], in data set [9], in data set [10], in data set [11] and in [12] was “inactive” throughout. Besides, the inhibition entry in data set [13], in data set [14], in data set [15], in data set [16], in [17] and in data set [18] was “inactive” each time. Besides, the “inhibition (INH)” value in data set [19] was “Not Active”.

On to `Cc1cc(C(N)=O)ccc1-n1c(CCC(=O)O)ccc1-c1ccc(-n2ccnc2)cc1` [N6022], for which the inhibition result in data set [1], in data set [2], in data set [3], in [4], in data set [5] and in data set [6] was “inactive” throughout. In addition, the inhibition entry in data set [7], in [8], in data set [9], in data set [10], in data set [11] and in data set [12] was “inactive” in each case. In addition, the inhibition entry in [13], in data set [14], in [15], in data set [16], in data set [17] and in [18] was “inactive” throughout. Besides, the “inhibition (INH)” value in data set [19] was “Not Active”. Besides, the IC50 (as a rule, the point on the concentration scale where inhibition reaches its midpoint) in data set [20] stood at 20 nM.

As to `COc1ccc(-c2ccn(-c3ccc(C(=O)O)c(O)c3)c2-c2ccc(C(N)=O)cc2C)cc1`, the inhibition result in data set [1], in data set [2], in data set [3], in data set [4], in [5] and in data set [6] was “Active” each time. Besides, the inhibition entry in data set [7], in [8], in [9], in data set [10], in [11] and in data set [12] was “Active” throughout. The inhibition result in [13], in data set [14], in [15], in data set [16], in [17] and in [18] was “Active” in each case. The “inhibition (INH)” value in [19] is on record as “Active”. For the same compound, the half-inhibitory concentration (IC50) in data set [20] turned out to be 280 nM.

(Values after ChEMBL document CHEMBL1781986, “Structure-activity relationships of pyrrole based S-nitrosoglutathione reductase inhibitors: pyrrole regioisomers and propionic acid replacement” (Bioorg Med Chem Lett, 2011).)
